Results: DBAASP
Values after ≈ are worked out from the molar mass of the structure shown. Values joined by “and” are separate entries in the source; they are usually repeats but may differ in a detail not shown here. Equal values may be shown once.

Tests used:
Assay in all cases: ≥ marks a high value that may be exact or a test limit, other limits are often not marked, values filed in µg/mL are converted to µM
Escherichia coli JW0013 = system: Escherichia coli JW0013
[1] = system: Staphylococcus aureus USA 300
[2] = system: Klebsiella pneumoniae ATCC 13883
[3] = system: Escherichia coli ATCC 25922
[4] = system: Pseudomonas aeruginosa PAO1
[5] = system: Escherichia coli KCTC 1682
[6] = system: Staphylococcus epidermidis KCTC 1917
[7] = system: Salmonella typhimurium KCTC 1926
[8] = system: Bacillus subtilis KCTC 3068
[9] = system: Staphylococcus aureus KCTC 1621
[10] = system: Pseudomonas aeruginosa KCTC 1637
Bacillus subtilis = system: Bacillus subtilis
Escherichia coli = system: Escherichia coli
Staphylococcus aureus = system: Staphylococcus aureus
Salmonella typhimurium = system: Salmonella typhimurium
[11] = system: Salmonella enterica subsp. enterica serovar Typhimurium ATCC 14028
[12] = system: Acinetobacter baumannii ATCC 19606
[13] = system: Staphylococcus aureus ATCC 25923
[14] = system: Staphylococcus aureus ATCC 33591
Acinetobacter baumannii = system: Acinetobacter baumannii
Klebsiella pneumoniae = system: Klebsiella pneumoniae

`CC[C@H](C)[C@H](NC(=O)[C@H](CCCN=C(N)N)NC(=O)[C@H](CCCN=C(N)N)NC(=O)[C@@H]1CCCN1C(=O)[C@@H]1CCCN1C(=O)[C@H](CCCN=C(N)N)NC(=O)[C@H](CCCCN)NC(=O)[C@H](CCCN=C(N)N)NC(=O)[C@@H]1CCCN1C(=O)[C@H](CC(C)C)NC(=O)[C@H](Cc1ccc(O)cc1)NC(=O)[C@H](Cc1cnc[nH]1)NC(=O)[C@H](CCCCN)NC(=O)[C@H](CCCCN)NC(=O)[C@H](CC(=O)O)NC(=O)[C@@H](N)C(C)C)C(=O)N[C@@H](Cc1ccc(O)cc1)C(=O)N[C@@H](CC(N)=O)C(=O)N[C@@H](CCCN=C(N)N)C(N)=O` [VDKKHYLPRKRPPRRIYNR] was tested, and the MIC (Escherichia coli JW0013) was 0.682 µM (≈ 1.7 µg/mL).
`CC[C@H](C)[C@H](NC(=O)[C@H](CCCN=C(N)N)NC(=O)[C@H](CCCN=C(N)N)NC(=O)[C@@H]1CCCN1C(=O)[C@@H]1CCCN1C(=O)[C@H](CCCN=C(N)N)NC(=O)[C@H](CCCCN)NC(=O)[C@H](CCCN=C(N)N)NC(=O)[C@@H]1CCCN1C(=O)[C@H](CC(C)C)NC(=O)[C@H](Cc1ccc(O)cc1)NC(=O)[C@@H]1CCCN1C(=O)[C@H](CCCCN)NC(=O)[C@H](CCCCN)NC(=O)[C@H](CC(=O)O)NC(=O)[C@@H](N)C(C)C)C(=O)N[C@@H](Cc1ccc(O)cc1)C(=O)N[C@@H](CC(N)=O)C(=O)N[C@@H](CCCN=C(N)N)C(N)=O` [VDKKPYLPRKRPPRRIYNR] showed an MIC (Escherichia coli JW0013) of 0.489 µM (≈ 1.2 µg/mL).
`CC(C)C[C@H](NC(=O)[C@H](CC(C)C)NC(=O)[C@H](CCCCN)NC(=O)[C@H](CC(C)C)NC(=O)CNC(=O)[C@H](CC(C)C)NC(=O)[C@H](CO)NC(=O)[C@H](CC(C)C)NC(=O)[C@H](CC(C)C)NC(=O)[C@H](CO)NC(=O)CNC(=O)[C@H](CC(C)C)NC(=O)[C@@H](N)CC(C)C)C(N)=O` [LLGSLLSLGLKLL] was tested, and the MIC [1] was 1.6 µM (≈ 2.14 µg/mL), the MIC [2] was 25 µM (≈ 33.5 µg/mL) and the MIC [3] was > 25 µM. The MIC [4] was > 25 µM.
`CC[C@H](C)[C@H](NC(=O)[C@H](CC(C)C)NC(=O)[C@@H](N)CC(C)C)C(=O)N[C@H](C(=O)N[C@@H](CC(C)C)C(=O)N[C@@H](CCCCN)C(=O)N[C@@H](CCCCN)C(=O)N[C@@H](CCCCN)C(=O)N[C@@H](Cc1c[nH]c2ccccc12)C(=O)N[C@@H](CCCCN)C(=O)N[C@@H](CCCCN)C(=O)N[C@@H](CCC(N)=O)C(=O)N[C@@H](C)C(=O)N[C@@H](CCCCN)C(=O)N[C@@H](C)C(=O)N[C@@H](CCCCN)C(=O)N[C@@H](CO)C(=O)N[C@@H](CCCCN)C(N)=O)[C@@H](C)CC` [LLIILKKKWKKQAKAKSK] was tested, and the MIC [5] was 8 µM (≈ 17.2 µg/mL), the MIC [6] was 8 µM (≈ 17.2 µg/mL) and the MIC [7] was 4 µM (≈ 8.61 µg/mL). It also gave an MIC [8] of 4 µM (≈ 8.61 µg/mL), an MIC [9] of 4 µM (≈ 8.61 µg/mL) and an MIC [10] of 8 µM (≈ 17.2 µg/mL).
With `CC[C@H](C)[C@H](NC(=O)[C@H](CCCN=C(N)N)NC(=O)[C@@H](NC(=O)[C@@H](NC(=O)[C@@H](NC(=O)CN)C(C)C)C(C)C)C(C)C)C(=O)NCC(=O)N[C@@H](CCCN=C(N)N)C(=O)N[C@H](C(=O)N[C@H](C(=O)N[C@H](C(=O)N[C@@H](CCCN=C(N)N)C(=O)NCC(=O)N[C@H](C(=O)N[C@@H](CCCN=C(N)N)C(=O)N[C@@H](CCCN=C(N)N)C(N)=O)C(C)C)C(C)C)[C@@H](C)CC)C(C)C` [GVVVRIGRVIVRGVRR] the MIC (Bacillus subtilis) was 4 µM (≈ 7.16 µg/mL), the MIC (Escherichia coli) was 8 µM (≈ 14.3 µg/mL) and the MIC (Staphylococcus aureus) was 8 µM (≈ 14.3 µg/mL). It also gave an MIC (Salmonella typhimurium) of 4 µM (≈ 7.16 µg/mL).
With `CC[C@H](C)[C@H](NC(=O)[C@H](Cc1c[nH]c2ccccc12)NC(=O)[C@H](CCCN=C(N)N)NC(=O)[C@@H](NC(=O)[C@@H](NC(=O)[C@H](CCCN=C(N)N)NC(=O)[C@H](CCCCN)NC(=O)[C@@H](N)Cc1c[nH]c2ccccc12)[C@@H](C)CC)C(C)C)C(=O)N[C@@H](CCCCN)C(=O)N[C@@H](CCCN=C(N)N)C(=O)N[C@@H](Cc1c[nH]c2ccccc12)C(=O)N[C@@H](CC(C)C)C(=O)N[C@@H](CCCN=C(N)N)C(N)=O` [WKRIVRWIKRWLR] the MIC [5] was 8 µM (≈ 15.2 µg/mL), the MIC [6] was 8 µM (≈ 15.2 µg/mL) and the MIC [7] was 4 µM (≈ 7.58 µg/mL). For the same compound, the MIC [8] was 4 µM (≈ 7.58 µg/mL), the MIC [9] was 2 µM (≈ 3.79 µg/mL) and the MIC [10] was 4 µM (≈ 7.58 µg/mL).
`CC[C@H](C)[C@H](NC(=O)[C@H](CC(C)C)NC(=O)[C@@H](N)CC(C)C)C(=O)N[C@H](C(=O)N[C@@H](CC(C)C)C(=O)N[C@@H](CCCN=C(N)N)C(=O)N[C@@H](CCCN=C(N)N)C(=O)N[C@@H](CCCN=C(N)N)C(=O)N[C@@H](Cc1c[nH]c2ccccc12)C(=O)N[C@@H](CCCN=C(N)N)C(=O)N[C@@H](CCCN=C(N)N)C(=O)N[C@@H](CCC(N)=O)C(=O)N[C@@H](C)C(=O)N[C@@H](CCCN=C(N)N)C(=O)N[C@@H](C)C(=O)N[C@@H](CCCN=C(N)N)C(=O)N[C@@H](CO)C(=O)N[C@@H](CCCN=C(N)N)C(N)=O)[C@@H](C)CC` [LLIILRRRWRRQARARSR] gave an MIC [5] of 8 µM (≈ 19 µg/mL), an MIC [6] of 8 µM (≈ 19 µg/mL) and an MIC [7] of 4 µM (≈ 9.5 µg/mL). The MIC [8] was 4 µM (≈ 9.5 µg/mL), the MIC [9] was 4 µM (≈ 9.5 µg/mL) and the MIC [10] was 8 µM (≈ 19 µg/mL).
Compound `CC[C@H](C)[C@H](N)C(=O)NCC(=O)N[C@@H](CCCCN)C(=O)N[C@@H](CC(C)C)C(=O)N[C@@H](Cc1ccccc1)C(=O)N[C@@H](CCCCN)C(=O)N[C@@H](CCCN=C(N)N)C(=O)N[C@H](C(=O)N[C@H](C(=O)N[C@@H](CCCCN)C(=O)N[C@@H](CCCN=C(N)N)C(=O)N[C@H](C(=O)N[C@@H](CC(C)C)C(=O)N[C@@H](CCCCN)C(=O)N[C@@H](Cc1ccccc1)C(=O)N[C@@H](CC(C)C)C(=O)N[C@@H](CCCN=C(N)N)C(=O)N[C@@H](CCCCN)C(=O)N[C@@H](CC(C)C)C(=O)O)[C@@H](C)CC)C(C)C)[C@@H](C)CC` [IGKLFKRIVKRILKFLRKL] has an MIC [5] of 8 µM (≈ 19 µg/mL), an MIC [6] of 4 µM (≈ 9.48 µg/mL) and an MIC [7] of 4 µM (≈ 9.48 µg/mL). It also gave an MIC [8] of 2 µM (≈ 4.74 µg/mL), an MIC [9] of 4 µM (≈ 9.48 µg/mL) and an MIC [10] of 8 µM (≈ 19 µg/mL).
For `CC(C)C[C@H](NC(=O)[C@H](CCCN=C(N)N)NC(=O)[C@H](CCCN=C(N)N)NC(=O)[C@H](C)NC(=O)[C@H](Cc1c[nH]c2ccccc12)NC(=O)CNC(=O)[C@H](CCCN=C(N)N)NC(=O)[C@@H](N)CCCN=C(N)N)C(=O)N[C@@H](C)C(=O)N[C@@H](Cc1ccccc1)C(=O)N[C@@H](C)C(=O)N[C@@H](Cc1ccccc1)C(=O)N[C@@H](C)C(=O)N[C@@H](Cc1ccccc1)C(=O)NCC(=O)N[C@@H](CCCN=C(N)N)C(=O)N[C@@H](CCCN=C(N)N)C(N)=O` [RRGWARRLAFAFAFGRR], the MIC [11] was 1.5 µM (≈ 3.14 µg/mL), the MIC [12] was 6.2 µM (≈ 13 µg/mL) and the MIC [13] was 26.3 µM and 30 µM. For the same compound, the MIC [2] was 2.6 µM (≈ 5.44 µg/mL) and the MIC [4] was 2.5 µM and 5.2 µM.
With `CSCC[C@H](NC(=O)[C@H](CCCN=C(N)N)NC(=O)[C@H](CCCN=C(N)N)NC(=O)[C@H](CC(N)=O)NC(=O)[C@H](CCC(N)=O)NC(=O)[C@@H](N)Cc1ccccc1)C(=O)N[C@@H](CCCCN)C(=O)N[C@@H](Cc1c[nH]c2ccccc12)C(=O)N[C@@H](CCCCN)C(=O)N[C@@H](CCCCN)C(N)=O` [FQNRRMKWKK] the MIC [3] was > 256 µM and the MIC [14] was ≥ 256 µM.
`CC(C)C[C@H](NC(=O)[C@H](CC(C)C)NC(=O)[C@H](CCCCN)NC(=O)CNC(=O)[C@H](CC(C)C)NC(=O)[C@H](CC(C)C)NC(=O)[C@H](CC(C)C)NC(=O)[C@H](CC(C)C)NC(=O)[C@H](CO)NC(=O)[C@H](CO)NC(=O)[C@H](CC(C)C)NC(=O)[C@H](CC(C)C)NC(=O)CN)C(N)=O` [GLLSSLLLLGKLL] was tested, and the MIC [1] was 3.1 µM (≈ 4.15 µg/mL), the MIC [2] was 25 µM (≈ 33.5 µg/mL) and the MIC [3] was > 25 µM. The MIC [4] was > 25 µM.
`CC(C)C[C@H](NC(=O)[C@H](CCCN=C(N)N)NC(=O)[C@H](CCCN=C(N)N)NC(=O)[C@H](C)NC(=O)[C@H](Cc1c[nH]c2ccccc12)NC(=O)CNC(=O)[C@H](CCCN=C(N)N)NC(=O)[C@@H](N)CCCN=C(N)N)C(=O)N[C@H](C(=O)N[C@@H](Cc1ccccc1)C(=O)N[C@@H](C)C(=O)N[C@@H](Cc1ccccc1)C(=O)NCC(=O)N[C@@H](CCCN=C(N)N)C(=O)N[C@@H](CCCN=C(N)N)C(N)=O)C(C)C` [RRGWARRLVFAFGRR] was tested, and the MIC (Acinetobacter baumannii) was 3.2 µM (≈ 6.09 µg/mL), the MIC (Klebsiella pneumoniae) was 1.3 µM (≈ 2.47 µg/mL) and the MIC [13] was > 30 µM. For the same compound, the MIC [2] was 30 µM (≈ 57.1 µg/mL) and the MIC [3] was 15.1 µM and 26.6 µM.
Work on `CC[C@H](C)[C@H](NC(=O)[C@H](CC(C)C)NC(=O)[C@@H](N)CC(C)C)C(=O)N[C@H](C(=O)N[C@@H](CC(C)C)C(=O)N[C@@H](CCCN=C(N)N)C(=O)N[C@@H](CCCN=C(N)N)C(=O)N[C@@H](CCCN=C(N)N)C(=O)N[C@@H](Cc1c[nH]c2ccccc12)C(=O)N[C@@H](CCCN=C(N)N)C(=O)N[C@@H](CCCCN)C(=O)N[C@@H](CCC(N)=O)C(=O)N[C@@H](C)C(=O)N[C@@H](CCCN=C(N)N)C(=O)N[C@@H](C)C(=O)N[C@@H](CCCN=C(N)N)C(=O)N[C@@H](CO)C(=O)N[C@@H](CCCCN)C(N)=O)[C@@H](C)CC` [LLIILRRRWRKQARARSK] yielded an MIC [5] of 8 µM (≈ 18.6 µg/mL), an MIC [6] of 8 µM (≈ 18.6 µg/mL) and an MIC [7] of 4 µM (≈ 9.28 µg/mL). The MIC [8] was 4 µM (≈ 9.28 µg/mL), the MIC [9] was 4 µM (≈ 9.28 µg/mL) and the MIC [10] was 8 µM (≈ 18.6 µg/mL).
